Measured values reported in paper PMC5748833, “Synthesis and Biological Evaluation of Novel Hybrid Molecules Containing Purine, Coumarin and Isoxazoline or Isoxazole Moieties” (The Open Medicinal Chemistry Journal, 2017).

What was measured:
[1] = target: T1, rat monoamine oxidase A (Rattus norvegicus, UniProt P21396); assay: Inhibition of MAO-A (spectrofluorimetric method); format: biochemical; settings: 10 μM compound
T1 construct: from tissue
T1 sequence (P21396 1-526): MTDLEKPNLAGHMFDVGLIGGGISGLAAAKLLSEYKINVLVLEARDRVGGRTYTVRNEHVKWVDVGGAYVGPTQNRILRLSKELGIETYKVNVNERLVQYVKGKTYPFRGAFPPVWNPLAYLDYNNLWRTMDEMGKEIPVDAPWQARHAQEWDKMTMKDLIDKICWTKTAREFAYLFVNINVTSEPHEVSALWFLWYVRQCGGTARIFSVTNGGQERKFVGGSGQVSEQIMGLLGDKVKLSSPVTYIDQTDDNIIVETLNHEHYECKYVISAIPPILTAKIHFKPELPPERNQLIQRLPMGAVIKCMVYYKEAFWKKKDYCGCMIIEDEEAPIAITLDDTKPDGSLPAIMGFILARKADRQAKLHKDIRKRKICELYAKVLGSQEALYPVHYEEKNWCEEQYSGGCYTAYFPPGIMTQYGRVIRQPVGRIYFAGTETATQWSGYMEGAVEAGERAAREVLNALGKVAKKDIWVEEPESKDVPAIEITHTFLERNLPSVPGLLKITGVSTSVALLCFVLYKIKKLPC
Text: (§1) 2.2.2.6 Inhibition Study on MAOs in vitro
(§2) Inhibition of rat monoamine oxidase A and B was studied by means of a spectrofluorimetric method as previously detailed.

[2] = target: T2, soybean lipoxygenase (Glycine max, UniProt P08170); assay: Soybean lipoxygenase inhibition in vitro; format: biochemical; settings: for %LOX @ 100μΜ: 100 μM compound; for IC50: read-out: LOX IC50 μΜ
T2 construct: purchased Sigma Chemical, Co. (St. Louis, MO, USA)
T2 sequence (P08170 1-839): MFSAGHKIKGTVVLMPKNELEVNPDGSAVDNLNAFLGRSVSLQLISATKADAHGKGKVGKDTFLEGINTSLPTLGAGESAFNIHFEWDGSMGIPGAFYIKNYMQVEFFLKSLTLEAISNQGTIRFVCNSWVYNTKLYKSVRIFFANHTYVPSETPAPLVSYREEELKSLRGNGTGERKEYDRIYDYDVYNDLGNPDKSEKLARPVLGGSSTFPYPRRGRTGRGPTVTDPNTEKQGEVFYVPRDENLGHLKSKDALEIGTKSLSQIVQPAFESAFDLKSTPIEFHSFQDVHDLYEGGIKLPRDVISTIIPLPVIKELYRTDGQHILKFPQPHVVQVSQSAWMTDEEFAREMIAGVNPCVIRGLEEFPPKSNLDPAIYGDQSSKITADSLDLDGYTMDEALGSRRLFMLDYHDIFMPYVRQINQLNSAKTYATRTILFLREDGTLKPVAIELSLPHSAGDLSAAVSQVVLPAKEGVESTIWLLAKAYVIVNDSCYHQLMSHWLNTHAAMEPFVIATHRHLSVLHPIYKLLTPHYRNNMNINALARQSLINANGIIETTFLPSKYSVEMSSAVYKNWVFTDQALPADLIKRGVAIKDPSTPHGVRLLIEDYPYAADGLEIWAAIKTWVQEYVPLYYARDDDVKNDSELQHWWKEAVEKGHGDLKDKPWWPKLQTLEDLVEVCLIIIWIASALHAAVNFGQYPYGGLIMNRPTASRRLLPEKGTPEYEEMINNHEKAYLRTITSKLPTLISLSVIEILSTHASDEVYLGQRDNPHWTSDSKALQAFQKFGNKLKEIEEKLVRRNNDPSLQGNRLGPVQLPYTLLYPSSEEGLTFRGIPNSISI
Procedure: 2.2.2.4 Soybean lipoxygenase inhibition study in vitro [14]
In vitro study was evaluated as reported previously. The tested compounds dissolved in ethanol were incubated at room temperature with sodium linoleate (0.1 mM) and 0.2 ml of enzyme solution (1/9 x10^-4 w/v in saline). […] Several concentrations were used for the determination of IC50 values (Table 5).
LO is the key enzyme in leukotriene biosynthesis. Leukotrienes derived from the biotransformation of arachidonic acid catalyzed by 5-lipoxygenase (5-LO), are important inflammatory mediators implicated in several diseases. LOs play a role in membrane lipid peroxidation by forming hydroperoxides in the lipid bilayer. […] Most of the LO inhibitors are antioxidants or free radical scavengers, since lipoxygenation occurs via a carbon-centered radical. The evaluation of the novel coumarin hybrids against soybean lipoxygenase LO was accomplished by the UV-based enzyme assay.

[3] = target: T3, electric eel acetylcholinesterase (eeAChE) (Electrophorus electricus, UniProt O42275); assay: biochemical; format: biochemical; settings: read-out: eeAChE IC50 μΜ
T3 construct: purchased Sigma
T3 sequence (O42275 24-633): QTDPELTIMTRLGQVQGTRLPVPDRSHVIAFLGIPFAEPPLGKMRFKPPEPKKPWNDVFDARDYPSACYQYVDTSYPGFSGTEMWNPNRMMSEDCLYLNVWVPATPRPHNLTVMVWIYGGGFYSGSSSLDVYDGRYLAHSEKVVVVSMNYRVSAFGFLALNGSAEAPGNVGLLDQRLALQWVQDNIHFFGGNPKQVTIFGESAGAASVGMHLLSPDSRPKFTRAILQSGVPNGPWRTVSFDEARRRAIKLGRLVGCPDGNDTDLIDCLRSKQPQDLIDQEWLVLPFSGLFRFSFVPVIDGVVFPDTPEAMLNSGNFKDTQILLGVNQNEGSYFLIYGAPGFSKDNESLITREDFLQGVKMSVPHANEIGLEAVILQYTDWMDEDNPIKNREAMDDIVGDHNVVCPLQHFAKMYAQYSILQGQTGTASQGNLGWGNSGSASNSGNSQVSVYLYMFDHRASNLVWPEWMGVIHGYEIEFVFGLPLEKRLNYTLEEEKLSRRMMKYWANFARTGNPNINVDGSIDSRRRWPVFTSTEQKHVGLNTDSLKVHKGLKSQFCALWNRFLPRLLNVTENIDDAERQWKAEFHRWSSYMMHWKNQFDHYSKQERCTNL
Text: (§3) 2.2.2.5 Inhibition Study on ChEs in vitro
(§4) In vitro inhibition of electric eel acetylcholinesterase (eeAChE; 463 U/mg, Sigma) and equine serum butyrylcholinesterase (esBChE; 13 U/mg, Sigma) was investigated with a 96-well plate procedure based on the classical Ellman’s spectrophotometric test, as already described.

[4] = target: T4, rat monoamine oxidase B (Rattus norvegicus, UniProt P19643); assay: Inhibition of MAO-B (spectrofluorimetric method); format: biochemical; settings: 10 μM compound
T4 construct: from tissue
T4 sequence (P19643 1-520): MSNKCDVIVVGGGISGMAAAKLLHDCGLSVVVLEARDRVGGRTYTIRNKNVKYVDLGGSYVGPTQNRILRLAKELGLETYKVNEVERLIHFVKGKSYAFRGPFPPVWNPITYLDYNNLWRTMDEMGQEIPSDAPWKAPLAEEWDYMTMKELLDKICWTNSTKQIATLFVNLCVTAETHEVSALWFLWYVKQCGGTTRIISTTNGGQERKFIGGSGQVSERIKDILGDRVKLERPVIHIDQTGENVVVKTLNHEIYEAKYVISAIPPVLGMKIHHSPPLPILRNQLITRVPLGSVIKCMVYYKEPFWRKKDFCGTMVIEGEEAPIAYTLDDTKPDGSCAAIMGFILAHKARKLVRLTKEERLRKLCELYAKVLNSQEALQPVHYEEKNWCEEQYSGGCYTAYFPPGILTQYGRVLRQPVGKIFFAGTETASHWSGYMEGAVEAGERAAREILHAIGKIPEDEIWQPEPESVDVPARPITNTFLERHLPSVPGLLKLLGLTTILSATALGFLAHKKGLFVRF
Text: as §1, §2

[5] = target: T5, equine serum butyrylcholinesterase (esBChE) (Equus caballus, UniProt P81908); assay: Inhibition of esBChE (Ellman's test); format: biochemical; settings: read-out: esBChE % inhibn. @ 10 μΜ
T5 construct: purchased Sigma; host or cells: equine serum
T5 sequence (P81908 whole entry): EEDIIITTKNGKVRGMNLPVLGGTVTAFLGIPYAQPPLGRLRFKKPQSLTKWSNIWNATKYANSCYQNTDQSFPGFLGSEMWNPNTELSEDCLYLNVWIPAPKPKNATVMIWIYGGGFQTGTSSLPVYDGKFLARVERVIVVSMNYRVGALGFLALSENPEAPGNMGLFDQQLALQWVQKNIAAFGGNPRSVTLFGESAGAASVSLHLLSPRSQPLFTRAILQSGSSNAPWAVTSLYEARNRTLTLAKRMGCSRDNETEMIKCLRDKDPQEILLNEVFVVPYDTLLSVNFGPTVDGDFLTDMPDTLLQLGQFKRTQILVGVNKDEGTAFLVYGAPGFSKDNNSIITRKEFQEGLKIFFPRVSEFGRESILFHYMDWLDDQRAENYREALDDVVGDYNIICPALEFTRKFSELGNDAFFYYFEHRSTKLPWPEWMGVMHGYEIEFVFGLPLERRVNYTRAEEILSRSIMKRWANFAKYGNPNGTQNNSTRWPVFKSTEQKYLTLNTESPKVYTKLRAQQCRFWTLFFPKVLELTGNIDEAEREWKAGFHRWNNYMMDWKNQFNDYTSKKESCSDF
Text: as §3, §4

[6] = Inhibition of linoleic acid lipid peroxidation (AAPH); settings: 100 μM compound, 37°C
Procedure: 2.2.2.3 Inhibition of linoleic acid lipid peroxidation
Production of conjugated diene hydroperoxide by oxidation of linoleic acid sodium salt in an aqueous solution was monitored at 234 nm. 2,2’-Azobis(2-amidinopropane) dihydrochloride (AAPH) was used as a free radical initiator. 10 μl of the 16 mM linoleic acid sodium salt solution was added to the UV cuvette containing 0.93 ml of 0.05 M phosphate buffer, pH 7.4 prethermostated at 37°C. The oxidation reaction was initiated at 37°C under air by the addition of 50 μl of 40 mM AAPH solution. Oxidation was carried out in the presence of 10 μl of the examined compounds (stock solution in DMSO). In the assay without antioxidant, lipid oxidation was measured in the presence of the same level of DMSO. The rate of oxidation at 37°C was monitored by recording the increase in absorption at 234 nm caused by conjugated diene hydroperoxides (Table 5). Trolox was used as a standard.
Anti-lipid peroxidation activity. The water-soluble azo compound AAPH has been extensively used as a clean and controllable source of thermally produced alkyl peroxyl free radicals, through spontaneous thermal decomposition. […] In the AAPH assay, the highly reactive alkylperoxyl radicals are intercepted mainly by a hydrogen atom transfer (HAT) from the antioxidant.

[7] = Reducing activity of the stable radical DPPH; settings: 100 μM compound, after 20 min
Procedure: 2.2.2.1 Determination of the reducing activity of the stable radical 1, 1-diphenyl-picrylhydrazyl (DPPH)
To a solution of DPPH (100μM) in absolute ethanol an equal volume of the compounds dissolved in ethanol was added. As control solution ethanol was used. The concentration of the solutions of the compounds was 100μM. After 20 and 60 min at room temperature the absorbance was recorded at 517 nm (Table 5). NDGA was used as a standard.
The compounds were studied for their antioxidant activity by the use of the stable 2,2-diphenyl-1-picrylhydrazyl radical (DPPH) at concentration 0.1mM after 20 min. […] This purple colour generally disappears in the presence of an antioxidant. The reduction of absorbance is a measure of the free DPPH due to the action of the antioxidant. The antioxidant activity was expressed as the RA% (Reducing Activity). […] Within the group of derivatives 4 the presence of the morpholinyl or piperidinyl rings at position A as well as the carbonyl group at position B, hinder the interaction of the compounds to the free stable radical DPPH.

[8] = Competition of the tested compounds with DMSO for hydroxyl radicals; settings: 100 μM compound, Fe3+/ascorbic acid, 30 min, 37°C
Procedure: 2.2.2.2 Competition of the tested compounds with DMSO for hydroxyl radicals
The hydroxyl radicals generated by the Fe ^3+ /ascorbic acid system, were detected according to Nash, by the determination of formaldehyde produced from the oxidation of DMSO. The reaction mixture contained EDTA (0.1 mM), Fe ^3+ (167 μM), DMSO (33 mM) in phosphate buffer (50 mM, pH 7.4), the tested compounds (concentration 0.1mM) and ascorbic acid (10 mM). After 30 min of incubation (37°C) the reaction was stopped with CCl3COOH (17% w/v) (Table 5). Trolox was used as a standard.
Superoxide (O2^-.) anion and hydroxyl radical (^.OH) are free radical species of potential importance. In the acidic conditions of ischemic brain, O2^-. is probably protonated to give HO2^-. species. Iron released from damaged brain cells is more likely to be readily available to catalyze the generation of OH radicals. Among the ROS, the hydroxyl (^•OH) free radical is possibly the most toxic, as it reacts with a number of biological important molecules. Polyunsaturated fatty acids are found in high concentrations in the CNS, and are particularly vulnerable by free radicals. Thus, we tried to test the ability of our compounds to scavenge hydroxyl radicals. […] All the derivatives of series 13 (except of 13i) present high antioxidant activity (80-100%) which is not able to be correlated with any specific structural characteristic since all contain a coumarin, a purine and an isoxazolyl moiery. […] It seems that the overall molar configuration influences the response. However, antioxidants with hydrophilic or lipophilic character are both needed to act as radical scavengers in the aqueous phase or as chain-breaking antioxidants in biological membranes.

## Cc1cc(=O)oc2cc(OCCC3CC(Cn4cnc5c(N6CCOCC6)ncnc54)=NO3)ccc12 (stereo not drawn) [4i]
[1]
  MAO-A (%) @ 10μΜ: 25%
[2]; read-out: %LOX @ 100μΜ
  inhibition at 100 µM: 2%
[3]
  IC50: 7.7 µM
[4]
  MAO-B (%) @ 10μΜ: no
[5]
  inhibition at 10 µM: 15%
[6]
  LP % @ 100μΜ (inhibition of lipid peroxidation): 54%

## Cc1cc(=O)oc2cc(OCC3CC(Cn4cnc5c(N6CCCCC6)ncnc54)=NO3)ccc12 (stereo not drawn) [4c]
[7]
  RA% @ 100μΜ (reducing activity, DPPH): 17%
[2]
  %LOX @ 100μΜ: no
other
  melting point: 186 to 187 °C
[8]; 100 µM
  ∙ΟΗ % @ 100μΜ (hydroxyl radical scavenging, percent inhibition of formaldehyde production): did not present any activity and no
[6]
  LP % @ 100μΜ (inhibition of lipid peroxidation): 65%

## O=c1ccc2ccc(OCc3cc(Cn4cnc5c(N6CCOCC6)ncnc54)on3)cc2o1 [15b]
[7]
  RA% @ 100μΜ (reducing activity, DPPH): no
[2]
  IC50: 100 µM
other
  melting point: 185 to 187 °C
[8]
  ∙ΟΗ % @ 100μΜ (hydroxyl radical scavenging, percent inhibition of formaldehyde production): 48%
[6]
  LP % @ 100μΜ (inhibition of lipid peroxidation): 52%

## O=c1ccc2ccc(OCC3=NOC(n4cnc5c(N6CCCCC6)ncnc54)C3)cc2o1 (stereo not drawn) [18a, 7-{[5-(6-piperidin-1-yl-9H-purin-9-yl)-4,5-dihydroisoxazol-3-yl]methoxy}-2H-chromen-2-one]
[7]
  RA% @ 100μΜ (reducing activity, DPPH): 4%
[2]
  IC50: 90 µM
other
  melting point: 197 to 199 °C
[8]; 100 µM
  ∙ΟΗ % @ 100μΜ (hydroxyl radical scavenging, percent inhibition of formaldehyde production): did not present any activity and no
[6]
  LP % @ 100μΜ (inhibition of lipid peroxidation): No

## O=C(Oc1ccc2oc(=O)ccc2c1)C1CC(Cn2cnc3c(N4CCCCC4)ncnc32)=NO1 (stereo not drawn) [4n]
[7]
  RA% @ 100μΜ (reducing activity, DPPH): 17%
[2]
  IC50: 35 µM
other
  melting point: 175 to 177 °C
[8]; 100 µM
  ∙ΟΗ % @ 100μΜ (hydroxyl radical scavenging, percent inhibition of formaldehyde production): did not present any activity and no
[6]
  LP % @ 100μΜ (inhibition of lipid peroxidation): no

## Cc1cc(=O)oc2cc(OCC3=NOC(Cn4cnc5c(N6CCCCC6)ncnc54)C3)ccc12 (stereo not drawn) [11d]
[7]
  RA% @ 100μΜ (reducing activity, DPPH): 13%
[2]
  IC50: 48 µM
other
  melting point: 144 to 145 °C
[8]; 100 µM
  ∙ΟΗ % @ 100μΜ (hydroxyl radical scavenging, percent inhibition of formaldehyde production): did not present any activity and no
[6]
  LP % @ 100μΜ (inhibition of lipid peroxidation): 43%

## Cc1cc(=O)oc2ccc(OCC3CC(Cn4cnc5c(N6CCOCC6)ncnc54)=NO3)cc12 (stereo not drawn) [4b]
[1]
  MAO-A (%) @ 10μΜ: no
[2]
  IC50: 60 µM
[3]
  IC50: 2.3 µM
[4]
  MAO-B (%) @ 10μΜ: 24%
[5]
  inhibition at 10 µM: 17%
[6]
  LP % @ 100μΜ (inhibition of lipid peroxidation): no

## Cc1cc(=O)oc2cc(OCC3=NOC(Cn4cnc5c(Cl)ncnc54)C3)ccc12 (stereo not drawn) [11e]
[1]
  MAO-A (%) @ 10μΜ: no
[2]
  %LOX @ 100μΜ: no
[3]
  IC50: 7.8 µM
[4]
  MAO-B (%) @ 10μΜ: 9%
[5]
  inhibition at 10 µM: 8%
[6]
  LP % @ 100μΜ (inhibition of lipid peroxidation): 63%

## O=c1ccc2ccc(OCC3=NOC(n4cnc5c(N6CCOCC6)ncnc54)C3)cc2o1 (stereo not drawn) [18b]
[7]
  RA% @ 100μΜ (reducing activity, DPPH): 1%
[2]
  IC50: 100 µM
other
  melting point: 205 to 206 °C
[8]; 100 µM
  ∙ΟΗ % @ 100μΜ (hydroxyl radical scavenging, percent inhibition of formaldehyde production): did not present any activity and no
[6]
  LP % @ 100μΜ (inhibition of lipid peroxidation): 38%
